{"source": "patent US6566376B1", "about": "“Diphenyl-piperidine derivative” (AstraZeneca UK Limited, priority 1999, dated 2003)", "note": "Where a name gives a salt, the structure may show the parent alone."}
{"smiles": "O=Cc1cn(Cc2ccc(Cl)cc2)nc1CN1CCC(c2ccccc2)(c2ccccc2)CC1", "values": [{"measurement": "melting point", "result": "133 to 134", "unit": "°C"}]}
{"smiles": "OCc1cn(Cc2ccc(Cl)cc2)nc1CN1CCC(c2ccccc2)(c2ccccc2)CC1", "values": [{"measurement": "melting point", "result": "104 to 105", "unit": "°C"}]}
{"smiles": "Clc1ccc(Cn2nncc2CN2CCC(c3ccccc3)(c3ccccc3)CC2)cc1", "values": [{"measurement": "melting point", "result": 195, "unit": "°C"}]}
{"smiles": "Clc1ccc(Cn2cc(CN3CCC(c4ccccc4)(c4ccccc4)CC3)nn2)cc1", "values": [{"measurement": "melting point", "result": 148, "unit": "°C"}]}
{"smiles": "O=C(O)c1c(CN2CCC(c3ccccc3)(c3ccccc3)CC2)ncn1Cc1ccc(Cl)cc1", "values": [{"measurement": "melting point", "result": "135 to 136", "unit": "°C"}]}
{"smiles": "Clc1cccc(Cn2ccc(CN3CCC(c4ccccc4)(c4ccccc4)CC3)n2)c1", "values": [{"measurement": "melting point", "result": "136 to 137", "unit": "°C"}]}
{"smiles": "NC(=O)c1c(CN2CCC(c3ccccc3)(c3ccccc3)CC2)ncn1Cc1ccc(Cl)cc1", "values": [{"measurement": "melting point", "result": "227 to 228", "unit": "°C"}]}
{"smiles": "Cc1ccc(Cn2ccc(CN3CCC(c4ccccc4)(c4ccccc4)CC3)n2)cc1C", "values": [{"measurement": "melting point", "result": "139 to 140", "unit": "°C"}]}
{"smiles": "Fc1ccc(Cn2ccc(CN3CCC(c4ccccc4)(c4ccccc4)CC3)n2)cc1", "note": "(as salt: hydrochloride)", "values": [{"measurement": "melting point", "result": "192 to 193", "unit": "°C"}]}
{"smiles": "COc1cc(Cl)ccc1Cn1ccc(CN2CCC(c3ccccc3)(c3ccccc3)CC2)n1", "note": "(as salt: hydrochloride)", "values": [{"measurement": "melting point", "result": "73 to 74", "unit": "°C"}]}
{"smiles": "Oc1cc(Cl)ccc1Cn1ccc(CN2CCC(c3ccccc3)(c3ccccc3)CC2)n1", "note": "(as salt: hydrochloride)", "values": [{"measurement": "melting point", "result": "260 to 261", "unit": "°C"}]}
{"smiles": "CN(C)C(=O)COc1cc(Cl)ccc1Cn1ccc(CN2CCC(c3ccccc3)(c3ccccc3)CC2)n1", "note": "(as salt: hydrochloride)", "values": [{"measurement": "melting point", "result": "181 to 182", "unit": "°C"}]}
{"smiles": "Clc1ccc(Cn2cnc(CN3CCC(c4ccccc4)(c4ccccc4)CC3)c2)cc1", "note": "(as salt: hydrochloride)", "values": [{"measurement": "melting point", "result": "254 to 255", "unit": "°C"}]}
{"smiles": "Clc1ccc(Cc2ncc(CN3CCC(c4ccccc4)(c4ccccc4)CC3)[nH]2)cc1", "note": "(as salt: hydrochloride)", "values": [{"measurement": "melting point", "result": "186 to 187", "unit": "°C"}]}
{"smiles": "Cc1ccc(Cn2ccc(CN3CCC(c4ccccc4)(c4ccccc4)CC3)n2)cc1", "note": "(as salt: hydrochloride)", "values": [{"measurement": "melting point", "result": "147 to 148", "unit": "°C"}]}
{"smiles": "FC(F)(F)c1ccc(Cn2ccc(CN3CCC(c4ccccc4)(c4ccccc4)CC3)n2)cc1", "note": "(as salt: hydrochloride)", "values": [{"measurement": "melting point", "result": "66 to 67", "unit": "°C"}]}
{"smiles": "Clc1ccc(Cn2ccc(CN3CCC(c4ccccc4)(c4ccccc4)CC3)n2)c(Cl)c1", "note": "(as salt: hydrochloride)", "values": [{"measurement": "melting point", "result": "101 to 102", "unit": "°C"}]}
{"smiles": "Clc1ccc(Cn2ccc(CN3CCC(c4ccccc4)(c4ccccc4)CC3)n2)cc1Cl", "note": "(as salt: hydrochloride)", "values": [{"measurement": "melting point", "result": "191 to 192", "unit": "°C"}]}
{"smiles": "Clc1ccc(Cn2ccc(CN3CCC(c4ccccc4)(c4ccccc4)CC3)n2)cc1", "note": "(as salt: hydrochloride)", "values": [{"measurement": "melting point", "result": "137 to 138", "unit": "°C"}]}
{"smiles": "O=C(c1cnc(Cc2ccc(Cl)cc2)[nH]1)N1CCC(c2ccccc2)(c2ccccc2)CC1", "note": "[Example 23, [2-(4-Chlorobenzyl)-1H-imidazol-5-yl](4,4-diphenyl-1-piperidinyl)methanone]", "values": [{"measurement": "melting point", "result": "105 to 106", "unit": "°C"}]}
